In publication PMC7246765, “Development of a Radiofluorinated Adenosine A2B Receptor Antagonist as Potential Ligand for PET Imaging” (International Journal of Molecular Sciences, 2020):
Where “and” joins values, the source holds several entries; their conditions need not be identical. Identical values can stand only once.

Columns and labels:
[1] = design: method as in PMID 30104122; conditions: mice, 30 min p.i.; cited from earlier work
[2] = target: T1, human adenosine A2B receptor (Homo sapiens, UniProt P29275); test: Competitive radioligand binding with [3H]PSB-603, membranes of CHO or HEK cells; conditions: mean ± SEM of three independent assays
T1 construct: host or cells: CHO or HEK cells
T1 sequence (P29275 1-332): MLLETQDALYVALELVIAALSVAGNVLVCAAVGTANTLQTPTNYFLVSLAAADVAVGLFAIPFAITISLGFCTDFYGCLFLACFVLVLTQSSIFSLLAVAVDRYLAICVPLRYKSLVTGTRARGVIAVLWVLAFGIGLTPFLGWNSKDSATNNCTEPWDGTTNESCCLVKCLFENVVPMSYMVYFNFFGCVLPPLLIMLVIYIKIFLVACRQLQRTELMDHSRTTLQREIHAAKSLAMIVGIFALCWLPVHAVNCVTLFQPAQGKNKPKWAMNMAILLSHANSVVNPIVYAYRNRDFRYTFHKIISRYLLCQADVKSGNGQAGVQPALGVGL
Method: (§1) The binding affinities of 2 and 9 at the four human adenosine receptor subtypes A2B, A2A, A1, and A3, presented in Table 1, were determined in competitive binding assays using appropriate radioligands and membrane preparations of Chinese hamster ovary (CHO) cells or human embryonic kidney (HEK) cells, respectively, recombinantly expressing the corresponding human receptor subtype.
(§2) Membrane preparations of recombinant CHO or HEK (human embryonic kidney) cells expressing the respective human adenosine receptor subtype were obtained according to Borrman et al. or purchased from Perkin Elmer, Germany. Radioligand binding assays using human A1, A2A, A2B and A3 receptors were performed according to Alnouri et al..
[^3H]8-(4-[4-(4-chlorophenyl)piperazine-1-sulfonyl]phenyl)-1-propyl-2,3,6,7-tetrahydro-1H-purine-2,6-dione ([^3H]PSB-603, molar activity: 73Ci/mmol, 0.3 nM [26]) for the A2B receptor, and
(§3) [^3H](R)-8-ethyl-4-methyl-2-(phenyl)1,4,7,8-tetrahydro-5H-imidazo[2,1-i]purin-5-one ([^3H]PSB-11, molar activity: 53 Ci/mmol, 1 nM [30]) for the A3 receptor. Three separate experiments were performed to determine the Ki values. All data were analyzed with GraphPad Prism, Version 4.1 (GraphPad Inc., La Jolla, CA,USA).

[3] = target: T2, human adenosine A2A receptor (Homo sapiens, UniProt P29274); test: Competitive radioligand binding with [3H]MSX-2, membranes of CHO or HEK cells; conditions: for Ki: [3H]MSX-2, mean ± SEM of three independent assays; for Selectivity Ratio Ki(Ax)/Ki(A2B): A2A/A2B: ratio of Ki values
T2 construct: host or cells: CHO or HEK cells
Method: as §1, §2
[^3H]3-(3-hydroxypropyl)-7-methyl-8-(m-methoxystyryl)-1-propargylxanthine, ([^3H]MSX-2, molar activity: 84 Ci/mmol, 1 nM [29]) for the A2A receptor,
as §3

[4] = target: T3, human adenosine A1 receptor (Homo sapiens, UniProt P30542); test: Competitive radioligand binding with [3H]CCPA, membranes of CHO or HEK cells; conditions: for Ki: [3H]CCPA, mean ± SEM of three independent assays; for Selectivity Ratio Ki(Ax)/Ki(A2B): A1/A2B: ratio of Ki values
T3 construct: host or cells: CHO or HEK cells
T3 sequence (P30542 1-326): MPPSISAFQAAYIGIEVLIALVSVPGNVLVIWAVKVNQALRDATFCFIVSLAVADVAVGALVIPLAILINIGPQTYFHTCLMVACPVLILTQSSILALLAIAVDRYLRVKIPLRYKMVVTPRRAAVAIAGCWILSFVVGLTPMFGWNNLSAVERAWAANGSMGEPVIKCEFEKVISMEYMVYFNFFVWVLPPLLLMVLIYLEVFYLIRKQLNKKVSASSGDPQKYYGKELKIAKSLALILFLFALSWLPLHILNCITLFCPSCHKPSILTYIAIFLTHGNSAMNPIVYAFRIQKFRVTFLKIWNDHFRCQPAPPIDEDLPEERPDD
Method: as §1, §2
[^3H]2-Chloro-N^6cyclopentyladenosine ([^3H]CCPA, molar activity: 58 Ci/mmol, 1 nM [28]) for the A1 receptor,
as §3

[5] = target: T4, human adenosine A3 receptor (Homo sapiens, UniProt P0DMS8); test: Competitive radioligand binding with [3H]PSB-11, membranes of CHO or HEK cells; conditions: for Ki: [3H]PSB-11, mean ± SEM of three independent assays; for Selectivity Ratio Ki(Ax)/Ki(A2B): A3/A2B: ratio of Ki values
T4 construct: host or cells: CHO or HEK cells
T4 sequence (P0DMS8 1-318): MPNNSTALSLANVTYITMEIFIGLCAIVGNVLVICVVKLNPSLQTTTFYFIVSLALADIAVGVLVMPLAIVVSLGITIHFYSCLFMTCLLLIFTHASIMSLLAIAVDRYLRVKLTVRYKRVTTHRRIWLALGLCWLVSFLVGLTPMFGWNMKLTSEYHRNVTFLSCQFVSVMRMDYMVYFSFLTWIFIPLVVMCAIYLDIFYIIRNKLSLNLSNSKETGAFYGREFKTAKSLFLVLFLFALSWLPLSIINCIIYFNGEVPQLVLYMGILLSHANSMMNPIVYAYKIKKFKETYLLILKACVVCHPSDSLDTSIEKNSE
Method: as §1, §2, §3

[6] = design: method as in PMID 20138516; conditions: in vitro, rat hepatic microsomes; cited from earlier work
[7] = Shake-flask lipophilicity, n-octanol/phosphate-buffered saline; format: physicochemical; conditions: n-octanol/PBS, n = 4
From the text: The partition coefficient of [^18F]9 was experimentally determined for the n-octanol/PBS system by the shake-flask method as described previously.

[8] = In vivo metabolism in mice, plasma and urine analysed by RP-HPLC and MLC; design: species or system CD-1 mice; conditions: 30 min p.i.
Method: The metabolism of [^18F]9 in vivo was investigated in CD-1 mice by taking blood and urine samples at 30 min post i.v. injection of the radiotracer (n = 2). Analysis of the respective samples was performed by micellar (MLC) and reversed-phase chromatography (RP-HPLC) as two complementary HPLC methods. MLC is also a reversed-phase HPLC mode, but it uses a mobile phase consisting of an aqueous solution with a surfactant above its critical micellar concentration. The formed micelles are able to dissolve the proteins and other components of a biological sample and therefore enable a direct injection of the plasma probe into the HPLC system without eliminating the tissue matrix. In contrast, for RP-HPLC analysis, aliquots of the plasma samples were treated with a mixture of ACN/water to precipitate the proteins, resulting in recoveries of activity of about 93%.
For metabolism studies (n = 2), [^18F]9 (30–40 MBq) was administered as a bolus in awake female CD-1 mice (10–12 weeks, 25–32 g) via the tail vein. At 30 min p.i., the animals were slightly anesthetized with isoflurane, and blood was sampled from retro-orbital plexus. Blood plasma was obtained as a supernatant after centrifugation of the whole blood samples (14,000 rpm, 1 min; Centrifuge 5418, Eppendorf Vertrieb Deutschland GmbH, Wesseling-Berzdorf, Germany). After cervical luxation of the animals, urine samples were obtained. All samples were weighed and the respective activity measured in a dose calibrator (ISOMED 2010; MED Nuklear-Medizintechnik Dresden GmbH, Dresden, Germany).
MLC: For preparation of the MLC samples, mouse plasma (20–50 µL) was dissolved in 200 µL of 200 mM aq. sodium dodecyl sulfate (SDS) and injected into the MLC system. The MLC system was built up as described previously. Separations were performed using a Reprosil-Pur C18-AQ column (250 × 4.6 mm + 10 mm pre-column, particle size: 10 µm) and an eluent mixture of EtOH/100 mM aq. SDS/25 mM (NH4)2HPO4 in gradient mode (0–10 min at 100% 100 mM aq. SDS, 10–15 min up to 10% EtOH, 15–20 min at 10% EtOH, 20–21 min up to 100% 100 mM aq. SDS; 21–30 min at 100% 100 mM aq. SDS) at a flow rate of 1.0 mL/min. The same HPLC apparatus was used as described in the radiochemistry part in generals.
RP-HPLC: Protein precipitation was performed by addition of an ice-cold mixture of ACN/water (9/1; v/v) in a ratio of 4:1 (v/v) of organic solvent to plasma. The sample workup was performed according to a procedure previously described in detail. The urine samples were diluted with water and directly injected. To analyze the samples, the same HPLC apparatus and method was used as described in the radiochemistry section.

[9] = Dynamic small-animal PET biodistribution, baseline and blocking with compound 2; format: in vivo, female CD-1 mice; conditions: for SUV 60 min p.i. lung / TAC peak SUV lung: single animals, n = 2
From the text: We then performed a pilot study to estimate very basic characteristics of the pharmacokinetics of the new radiotracer via dynamic small-animal PET imaging with [^18F]9 in female CD-1 mice. The time–activity curves (TACs) obtained in different tissues under both baseline (administration of vehicle, n = 2) and blocking (administration of compound 2, n = 2) conditions are presented in Figure 3; the whole-body maximum intensity projections are shown in Figure S3 in the Supplementary Material. The overall biodistribution of [^18F]9 under baseline conditions corresponded to the known quite ubiquitous but physiologically not very dense expression of A2B receptors. Although higher levels of the A2B receptor protein have been reported in the literature for certain cell types, such as alveolar epithelial cells and endothelial cells, the resemblance of the TACs in peripheral organs such as lungs under baseline and blocking conditions indicated no target-specific retention of [^18F]9 (TAC peak SUV lung: 3.09 and 2.88 vs. 2.30 and 1.57, resp.; SUV60 min p.i., lung: 0.44 and 0.25 vs. 0.32 and 0.20, resp.). […] This discrepancy between our and Petroni’s results might indicate differences in the biological effects exerted by agonistic (BAY60-6583) or antagonistic (compound 2) A2B receptor ligands, as well as model-related differences such as the expression of A2B receptors. The latter option could also explain the about 10-fold lower uptake of [^18F]9 in the brown adipose tissue (BAT) of female CD-1 mice in comparison to the uptake of [^11C]-4 in the BAT of male Wistar rats.
The biodistribution of the radiotracer was assessed in female CD-1 mice (30.6 ± 0.4 g bodyweight) using a dedicated small-animal PET-MRI scanner (nanoScan, Mediso, Hungary) over 60 min followed by a subsequent T1-weighted MR. The anaesthetized (2% isoflurane, carrier gas mixture of 40% air and 60% O2) female CD-1 mice were kept on a heated animal bed to maintain body temperature during imaging. Vehicle (10% DMSO in isotonic 0.9% NaCl solution) or compound 2 at 1 mg/kg bodyweight were co-injected with the tracer ([^18F]9: injected dose of 6.9 ± 0.1 MBq, equivalent to 10.4 ± 0.9 fmol/g bodyweight) intravenously 20 seconds after starting the dynamic PET acquisition, performed in normal mode and with a coincidence mode 1–5. For subsequent dynamic reconstructions (Nucline v2.01, Mediso, Hungary) by Ordered Subset Expectation Maximization (OSEM3D) with an attenuation correction with four iterations, six subsets, and a voxel size of 0.4 mm^3, list mode data were sorted into sinograms (12 × 10 s, 6 × 30 s, 5 × 60 s, and 10 × 300 s). PMOD software (v4.005, PMOD Technologies LLC, Zurich, Switzerland) was used for analysis of reconstructed studies and the results are expressed as standardized uptake value (SUV) given in mean ± SD.

[10] = blocking (compound 2, 1 mg/kg co-injected)

T2 sequence (P29274 whole entry): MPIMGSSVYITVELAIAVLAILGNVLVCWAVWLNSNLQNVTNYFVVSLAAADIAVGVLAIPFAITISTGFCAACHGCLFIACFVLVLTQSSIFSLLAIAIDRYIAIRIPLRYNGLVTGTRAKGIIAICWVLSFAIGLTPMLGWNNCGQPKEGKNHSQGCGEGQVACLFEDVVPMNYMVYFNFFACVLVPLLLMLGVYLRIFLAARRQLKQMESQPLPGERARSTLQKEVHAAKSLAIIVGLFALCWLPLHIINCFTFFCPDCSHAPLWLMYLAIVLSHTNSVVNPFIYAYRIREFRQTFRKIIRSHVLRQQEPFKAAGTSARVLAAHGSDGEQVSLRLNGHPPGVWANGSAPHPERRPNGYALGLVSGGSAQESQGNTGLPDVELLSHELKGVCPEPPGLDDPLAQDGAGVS

Compound: O=C(Nc1cnc(-c2ccnc([18F])c2)c(-c2ccccc2F)n1)C1CC1 [[^18F]1]
- intact radiotracer in plasma [1]: 35%

Compound: O=c1[nH]c(=O)c2cc(-c3ccnc(F)c3)c(-c3ccco3)nc2[nH]1 [Compound 9, 6-(2-Fluoropyridin-4-yl)-7-(furan-2-yl)pyrido[2,3-d]pyrimidine-2,4(1H,3H)-dione]
- Ki [2]: 2.51 ± 0.58 nM
- Ki [3]: 107 ± 15 nM
- Selectivity Ratio Ki(Ax)/Ki(A2B): A2A/A2B [3]: 43
- Ki [4]: 149 ± 26 nM
- Selectivity Ratio Ki(Ax)/Ki(A2B): A1/A2B [4]: 59
- Ki [5]: 286 ± 10 nM
- Selectivity Ratio Ki(Ax)/Ki(A2B): A3/A2B [5]: 114

Compound: O=c1[nH]c(=O)c2cc(-c3ccncn3)c(-c3ccco3)nc2[nH]1 [Compound 2, 7-(Furan-2-yl)-6-(pyrimidin-4-yl)pyrido[2,3-d]pyrimidine-2,4-(1H,3H)-dione]
- Ki [2]: 2.51 ± 1.1 nM
- Ki [3]: 98.8 ± 28.3 nM
- Selectivity Ratio Ki(Ax)/Ki(A2B): A2A/A2B [3]: 39
- Ki [4]: > 1000 nM
- Selectivity Ratio Ki(Ax)/Ki(A2B): A1/A2B [4]: > 400
- Ki [5]: > 1000 nM
- Selectivity Ratio Ki(Ax)/Ki(A2B): A3/A2B [5]: > 400
- metabolic stability [6]: high metabolic stability

Compound: O=c1[nH]c(=O)c2cc(-c3ccnc([18F])c3)c(-c3ccco3)nc2[nH]1 [[^18F]9]
- logD [7]: 1.4 ± 0.1
- activity concentration in urine (SUV) ([8]; CD-1 mice): 75
- intact radiotracer, fraction of total activity in plasma ([8]; CD-1 mice, i.v., n = 2): about 60%
- intact tracer in plasma, RP-HPLC, calculated considering the 93% recovery ([8]; mouse plasma): 60%
- intact radiotracer in plasma, MLC ([8]; mouse plasma, exemplary MLC chromatogram): 57%
- intact radiotracer in plasma, RP-HPLC ([8]; mouse plasma, exemplary RP-HPLC chromatogram): 64%
- SUV 60 min p.i. lung ([9]; baseline (vehicle)): 0.44 and 0.25
- TAC peak SUV lung ([9]; baseline (vehicle)): 3.09 and 2.88
- SUV brain after 60 min p.i. ([9]; baseline, mean (single values)): 0.11 (0.14 and 0.08)
- initial TAC peak SUV brain ([9]; baseline, mean (single values)): 0.19 (0.20 and 0.17)
- SUV 60 min p.i. lung [9, 10]: 0.32 and 0.20
- TAC peak SUV lung [9, 10]: 2.30 and 1.57
- TAC peak SUV brain ([9]; co-administration of compound 2, mean (single values)): 0.12 (0.11 and 0.13)
- fold lower uptake in brown adipose tissue (BAT) versus [11C]-4 in BAT of male Wistar rats ([9]; female CD-1 mice, comparison with ref 13): about 10 fold
